Key:
Assay in all cases: Kinase Assay
[1] = molecular target: Protein kinase C alpha type (Homo sapiens, UniProt P17252)
[2] = molecular target: Tyrosine-protein kinase ABL1 (Homo sapiens, UniProt P00519)
[3] = molecular target: Tyrosine-protein kinase CSK (Homo sapiens, UniProt P41240)
[4] = molecular target: cAMP-dependent protein kinase catalytic subunit alpha (Homo sapiens, UniProt P17612)
[5] = molecular target: Epidermal growth factor receptor (Homo sapiens, UniProt P00533)
Procedure: Determination of EGF receptor kinase activity was performed as described using A431 membranes as the enzyme source and agiotensin II as substrate.

Epidermal growth factor receptor, sequence (P00533 whole entry): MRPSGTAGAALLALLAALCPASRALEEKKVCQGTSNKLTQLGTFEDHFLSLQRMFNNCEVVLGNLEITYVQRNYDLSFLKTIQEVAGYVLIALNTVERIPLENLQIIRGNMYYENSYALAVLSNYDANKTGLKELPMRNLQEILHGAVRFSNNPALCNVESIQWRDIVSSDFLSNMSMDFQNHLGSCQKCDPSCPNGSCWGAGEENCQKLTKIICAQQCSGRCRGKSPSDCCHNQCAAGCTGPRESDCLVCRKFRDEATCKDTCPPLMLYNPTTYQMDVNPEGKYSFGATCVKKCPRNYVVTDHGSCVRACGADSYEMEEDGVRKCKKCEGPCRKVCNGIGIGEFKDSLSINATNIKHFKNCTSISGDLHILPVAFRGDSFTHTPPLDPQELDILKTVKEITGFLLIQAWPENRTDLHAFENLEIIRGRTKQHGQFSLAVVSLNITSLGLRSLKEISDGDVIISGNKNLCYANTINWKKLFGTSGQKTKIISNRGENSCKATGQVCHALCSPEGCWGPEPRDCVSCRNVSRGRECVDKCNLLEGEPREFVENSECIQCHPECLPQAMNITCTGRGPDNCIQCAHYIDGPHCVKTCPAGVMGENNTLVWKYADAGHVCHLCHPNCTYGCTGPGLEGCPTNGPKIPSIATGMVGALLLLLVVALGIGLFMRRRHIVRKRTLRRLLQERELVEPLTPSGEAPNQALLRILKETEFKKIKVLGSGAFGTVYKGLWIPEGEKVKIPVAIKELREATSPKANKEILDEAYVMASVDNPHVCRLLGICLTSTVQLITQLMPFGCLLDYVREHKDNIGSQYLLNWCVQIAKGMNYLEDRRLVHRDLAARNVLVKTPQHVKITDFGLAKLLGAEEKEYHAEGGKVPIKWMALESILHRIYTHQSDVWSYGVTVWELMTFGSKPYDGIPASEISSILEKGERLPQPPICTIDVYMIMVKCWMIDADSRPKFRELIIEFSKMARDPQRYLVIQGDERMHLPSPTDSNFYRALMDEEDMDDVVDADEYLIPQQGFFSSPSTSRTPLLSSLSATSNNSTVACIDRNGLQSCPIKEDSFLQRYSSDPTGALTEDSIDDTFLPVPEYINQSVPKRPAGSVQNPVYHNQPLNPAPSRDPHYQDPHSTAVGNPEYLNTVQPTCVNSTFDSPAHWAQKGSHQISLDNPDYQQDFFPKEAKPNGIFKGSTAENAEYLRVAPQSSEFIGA
Tyrosine-protein kinase ABL1, sequence (P00519 whole entry): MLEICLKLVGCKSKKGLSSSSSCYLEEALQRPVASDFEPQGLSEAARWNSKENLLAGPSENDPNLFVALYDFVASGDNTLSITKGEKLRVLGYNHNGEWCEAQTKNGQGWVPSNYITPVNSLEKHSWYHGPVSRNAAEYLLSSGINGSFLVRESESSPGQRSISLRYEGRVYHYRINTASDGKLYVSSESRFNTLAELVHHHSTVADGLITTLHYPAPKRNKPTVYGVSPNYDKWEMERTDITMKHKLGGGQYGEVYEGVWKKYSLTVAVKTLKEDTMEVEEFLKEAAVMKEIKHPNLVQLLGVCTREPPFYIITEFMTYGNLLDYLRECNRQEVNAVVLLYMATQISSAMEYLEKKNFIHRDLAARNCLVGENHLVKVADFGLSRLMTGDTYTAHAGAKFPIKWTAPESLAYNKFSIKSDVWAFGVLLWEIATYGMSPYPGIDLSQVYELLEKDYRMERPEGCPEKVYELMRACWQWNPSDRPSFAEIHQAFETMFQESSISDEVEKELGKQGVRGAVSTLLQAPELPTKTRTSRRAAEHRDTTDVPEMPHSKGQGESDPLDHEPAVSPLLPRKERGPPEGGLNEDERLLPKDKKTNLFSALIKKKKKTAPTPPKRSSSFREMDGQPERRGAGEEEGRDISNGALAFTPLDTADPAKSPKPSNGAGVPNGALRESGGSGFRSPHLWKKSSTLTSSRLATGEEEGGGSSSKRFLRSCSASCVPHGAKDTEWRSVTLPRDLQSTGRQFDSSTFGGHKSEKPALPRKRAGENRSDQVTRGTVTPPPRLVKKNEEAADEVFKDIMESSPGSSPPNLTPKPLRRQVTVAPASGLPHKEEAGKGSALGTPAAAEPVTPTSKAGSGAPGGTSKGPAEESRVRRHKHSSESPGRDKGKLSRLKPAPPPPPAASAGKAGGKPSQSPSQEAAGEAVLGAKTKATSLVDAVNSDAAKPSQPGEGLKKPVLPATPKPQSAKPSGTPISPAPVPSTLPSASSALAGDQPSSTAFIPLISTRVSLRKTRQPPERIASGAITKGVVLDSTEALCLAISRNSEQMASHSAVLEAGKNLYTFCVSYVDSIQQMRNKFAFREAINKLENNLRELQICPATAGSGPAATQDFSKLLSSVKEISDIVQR

| Compound | IC50 [1] [µM] | IC50 [2] [µM] | IC50 [3] [µM] | IC50 [4] [µM] | IC50 [5] [µM] |
| --- | --- | --- | --- | --- | --- |
| O=c1c(-c2ccc(O)cc2)coc2cc(O)cc(O)c12 [Prunetol] | 15 | 39 | > 50 | > 100 |  |
| C=CCN1C(=O)C(=C)SC1=NN=c1scc(O)n1C [Thiazolidine-dione, 1] | > 500 | > 100 | 4 | > 500 | 6 |
| C=C(C)CN1C(=O)C(=C)SC1=NN=c1scc(O)n1C [Thiazolidine-dione, 2] | > 100 | 100 | 3 | > 500 | 1 |
| C=C(C)Cn1c(O)c(CN(C)C)sc1=NN=c1scc(O)n1C [Thiazolidine-dione, 3] | 350 | > 100 | 7 | > 500 | 2 |
| C=C(C)Cn1c(O)csc1=NN=c1scc(O)n1C [Thiazolidine-dione, 4] | > 100 | > 100 | > 100 |  | > 50 |

Other lines, results leading:

| IC50 [1] [µM] | IC50 [2] [µM] | IC50 [3] [µM] | IC50 [4] [µM] | IC50 [5] [µM] | Compound |
| --- | --- | --- | --- | --- | --- |
| > 100 | > 100 | > 100 |  | > 50 | C=CCn1c(O)c(C)sc1=NN=c1scc(O)n1C [Thiazolidine-dione, 5] |
| > 100 | > 100 | > 100 |  | > 50 | C=C(C)Cn1c(O)c(C)sc1=NN=c1scc(O)n1C [Thiazolidine-dione, 6] |
| > 100 | > 100 | > 100 |  | > 100 | C=C(C)Cn1c(O)c(O)sc1=NN=c1scc(O)n1C [Thiazolidine-dione, 7] |
| > 100 | > 100 |  |  | > 50 | C=C(C)Cn1c(O)c(CO)sc1=NN=c1scc(O)n1C [Thiazolidine-dione, 8] |
| > 100 | > 100 | > 100 |  | > 100 | C=CCn1c(O)c(CC(=O)O)sc1=NN=c1scc(O)n1C [Thiazolidine-dione, 9] |
| > 100 | > 100 | > 100 | > 100 | 100 | C=C(C)Cn1c(O)c(OS(=O)O)sc1=NN=c1scc(O)n1C [Thiazolidine-dione, 10] |

From BindingDB's records for PubMed 2176210 (Ciba-Geigy, 1990)
